# How the values were obtained:
# Format in all cases: functional, organism-based
# [1] = tested on: Plasmodium falciparum; assay: Antimalarial activity against Plasmodium falciparum IMT K14 assessed as inhibition of [3H] incorporation after 48 hrs by scintillation counter
# [2] = tested on: Plasmodium falciparum; assay: Antimalarial activity against Plasmodium falciparum IMT Vol harboring Ppcrt M74I, N75E, K76T, A220S, Q271E, N326S mutant gene, Pmdr1 N86Y mutant gene and Pfmrp H191Y and S437A mutant gene assessed as incorporation of [3]H hypoxanthine after 48 hrs by scintillation counter
# [3] = tested on: Plasmodium falciparum; assay: Antimalarial activity against Plasmodium falciparum IMT 8425 harboring Ppcrt I371R mutant gene and Pfnhe-1 ms4760 microsatellite mutant assessed as incorporation of [3]H hypoxanthine after 48 hrs by scintillation counter; conditions: IMT 8425, 48 h
# [4] = tested on: Plasmodium falciparum; assay: Antimalarial activity against Plasmodium falciparum IMT K2 assessed as inhibition of [3H] incorporation after 48 hrs by scintillation counter
# [5] = tested on: Plasmodium falciparum; assay: Antimalarial activity against Plasmodium falciparum IMT K2 harboring Ppcrt M74I, N75E, K76T, A220S, Q271E, N326S mutant gene, Pmdr1 S1034C, N1042D mutant gene and Pfmrp H191Y and S437A mutant gene assessed as incorporation of [3]H hypoxanthine after 48 hrs by scintillation counter; conditions: IMT K2, 48 h
# [6] = tested on: Plasmodium falciparum; assay: Antimalarial activity against Plasmodium falciparum D6 harboring Ppcrt I371R mutant gene assessed as incorporation of [3]H hypoxanthine after 48 hrs by scintillation counter; conditions: D6, 48 h
# [7] = tested on: Plasmodium falciparum; assay: Antimalarial activity against Plasmodium falciparum IMT 10500 harboring Pfcrt Q271E mutant gene and Ppcrt I371R mutant gene and Pfnhe-1 ms4760 microsatellite mutant assessed as incorporation of [3]H hypoxanthine after 48 hrs by scintillation counter; conditions: IMT 10500, 48 h
# [8] = tested on: Plasmodium falciparum; assay: Antimalarial activity against Plasmodium falciparum PA assessed as inhibition of [3H] incorporation after 48 hrs by scintillation counter
# [9] = tested on: Plasmodium falciparum; assay: Antimalarial activity against Plasmodium falciparum HB3 harboring Ppcrt I371R mutant gene and Pfmdr1 Y184F mutant gene assessed as incorporation of [3]H hypoxanthine after 48 hrs by scintillation counter; conditions: HB3, 48 h
# [10] = tested on: Plasmodium falciparum; assay: Antimalarial activity against Plasmodium falciparum IMT Guy harboring Ppcrt K76T, A220S, N326D and I371R mutant gene, Pmdr1 […], 1042D and D1246Y, mutant gene and Pfmrp H191Y and S437A mutant gene and Pfnhe-1 ms4760 microsatellite mutant assessed as incorporation of [3]H hypoxanthine after 48 hrs by scintillation counter
# [11] = tested on: Plasmodium falciparum; assay: Antimalarial activity against Plasmodium falciparum FCM29 assessed as inhibition of [3H] incorporation after 48 hrs by scintillation counter
# [12] = tested on: Plasmodium falciparum; assay: Antimalarial activity against Plasmodium falciparum IMT 31 harboring Ppcrt I371R mutant gene assessed as incorporation of [3]H hypoxanthine after 48 hrs by scintillation counter; conditions: IMT 31, 48 h
# [13] = tested on: Plasmodium falciparum; assay: Antimalarial activity against Plasmodium falciparum 3D7 assessed as inhibition of [3H] incorporation after 48 hrs by scintillation counter
# [14] = tested on: Plasmodium falciparum; assay: Antimalarial activity against Plasmodium falciparum IMT A4 harboring Ppcrt M74I, N75E, K76T, […], Q271E, N326S and I356T mutant gene, Pmdr1 Y184F, N1042D, D1246Y mutant gene assessed as incorporation of [3]H hypoxanthine after 48 hrs by scintillation counter; conditions: IMT A4, 48 h
# [15] = tested on: Plasmodium falciparum; assay: Antimalarial activity against Plasmodium falciparum IMT L1 harboring Ppcrt M74I, N75E, K76T, A220S, Q271E mutant gene, Pmdr1 N86Y mutant gene and Pfmrp H191Y and S437A mutant gene assessed as incorporation of [3]H hypoxanthine after 48 hrs by scintillation counter; conditions: IMT L1, 48 h
# [16] = tested on: Plasmodium falciparum; assay: Antimalarial activity against Plasmodium falciparum W2 harboring Ppcrt M74I, N75E, K76T, A220S, Q271E, N326S and I356T mutant gene, Pmdr1 N86Y mutant gene and Pfmrp H191Y and S437A mutant gene assessed as incorporation of [3]H hypoxanthine after 48 hrs by scintillation counter; conditions: W2, 48 h
# [17] = tested on: Plasmodium falciparum; assay: Antimalarial activity against Plasmodium falciparum IMT 10336 harboring Pfcrt Q271E mutant gene and Ppcrt I371R mutant gene assessed as incorporation of [3]H hypoxanthine after 48 hrs by scintillation counter; conditions: IMT 10336, 48 h
# [18] = tested on: Plasmodium falciparum; assay: Antimalarial activity against Plasmodium falciparum W2 assessed as inhibition of [3H] incorporation after 48 hrs by scintillation counter
# [19] = tested on: Plasmodium falciparum; assay: Antimalarial activity against Plasmodium falciparum IMT 10354 assessed as inhibition of [3H] incorporation after 48 hrs by scintillation counter
# [20] = tested on: Plasmodium falciparum; assay: Antimalarial activity against Plasmodium falciparum IMT K4 harboring Ppcrt M74I, N75E, K76T, A220S, Q271E, N326S mutant gene, Pmdr1 S1034C, N1042D mutant gene and Pfmrp H191Y and S437A mutant gene assessed as incorporation of [3]H hypoxanthine after 48 hrs by scintillation counter; conditions: IMT K4, 48 h
# [21] = tested on: Plasmodium falciparum; assay: Antimalarial activity against Plasmodium falciparum IMT 31 assessed as inhibition of [3H] incorporation after 48 hrs by scintillation counter
# [22] = tested on: Plasmodium falciparum; assay: Antimalarial activity against Plasmodium falciparum FCR3 assessed as inhibition of [3H] incorporation after 48 hrs by scintillation counter
# [23] = tested on: Plasmodium falciparum; assay: Antimalarial activity against Plasmodium falciparum IMT 16332 assessed as inhibition of [3H] incorporation after 48 hrs by scintillation counter
# [24] = tested on: Plasmodium falciparum; assay: Antimalarial activity against Plasmodium falciparum IMT K4 assessed as inhibition of [3H] incorporation after 48 hrs by scintillation counter
# [25] = tested on: Plasmodium falciparum; assay: Antimalarial activity against Plasmodium falciparum IMT L1 assessed as inhibition of [3H] incorporation after 48 hrs by scintillation counter
# [26] = tested on: Plasmodium falciparum; assay: Antimalarial activity against Plasmodium falciparum IMT 8425 assessed as inhibition of [3H] incorporation after 48 hrs by scintillation counter
# [27] = tested on: Plasmodium falciparum; assay: Antimalarial activity against Plasmodium falciparum IMT A4 assessed as inhibition of [3H] incorporation after 48 hrs by scintillation counter
# [28] = tested on: Plasmodium falciparum; assay: Antimalarial activity against Plasmodium falciparum IMT 9881 harboring Ppcrt I371R mutant gene assessed as incorporation of [3]H hypoxanthine after 48 hrs by scintillation counter; conditions: IMT 9881, 48 h
# [29] = tested on: Plasmodium falciparum; assay: Antimalarial activity against Plasmodium falciparum IMT K14 harboring Ppcrt M74I, N75E, K76T, A220S, Q271E, N326S mutant gene, Pmdr1 Y184F, S1034C, N1042D, D1246Y mutant gene and Pfmrp H191Y and S437A mutant gene assessed as incorporation of [3]H hypoxanthine after 48 hrs by scintillation counter; conditions: IMT K14, 48 h
# [30] = tested on: Plasmodium falciparum; assay: Antimalarial activity against Plasmodium falciparum 106/1 harboring Ppcrt M74I, N75E, K76T, A220S, Q271E, N326S and I356T mutant gene, Pmdr1 N86Y mutant gene and Pfmrp H191Y and S437A mutant gene assessed as incorporation of [3]H hypoxanthine after 48 hrs by scintillation counter; conditions: 106/1, 48 h
# [31] = tested on: Plasmodium falciparum; assay: Antimalarial activity against Plasmodium falciparum IMT Bres assessed as inhibition of [3H] incorporation after 48 hrs by scintillation counter
SMILES,IC50 [1] [nM],IC50 [2] [nM],IC50 [3] [nM],IC50 [4] [nM],IC50 [5] [nM],IC50 [6] [nM],IC50 [7] [nM],IC50 [8] [nM],IC50 [9] [nM],IC50 [10] [nM],IC50 [11] [nM],IC50 [12] [nM],IC50 [13] [nM],IC50 [14] [nM],IC50 [15] [nM],IC50 [16] [nM],IC50 [17] [nM],IC50 [18] [nM],IC50 [19] [nM],IC50 [20] [nM],other results
C[C@H]1[C@@H](O)O[C@@H]2O[C@@]3(C)CC[C@H]4[C@H](C)CC[C@@H]1[C@@]24OO3 [ARTENIMOL],2.1,1.2,1.7,1.2,1.2,1.4,3.3,1.4,3,1.8,1.3,1.7,2.8,1.5,0.9,3,1.6,3,0.4,3.4,IC50 [21]: 1.7 nM; IC50 [22]: 1.6 nM; IC50 [23]: 1.1 nM; IC50 [24]: 3.4 nM; IC50 [25]: 0.9 nM; IC50 [26]: 1.7 nM; IC50 [27]: 1.5 nM; IC50 [28]: 3.5 nM; IC50 [29]: 2.1 nM; IC50 [30]: 5.8 nM; IC50 [31]: 1.4 nM
Clc1ccc2c(N3CCN(CCCN4CCN(c5ccnc6cc(Cl)ccc56)CC4)CC3)ccnc2c1 [PIPERAQUINE],61,37,44,84,84,58,81,80,55,63,98,48,58,75,47,52,74,52,29,64,IC50 [21]: 48 nM; IC50 [22]: 53 nM; IC50 [23]: 48 nM; IC50 [24]: 64 nM; IC50 [25]: 47 nM; IC50 [26]: 44 nM; IC50 [27]: 75 nM; IC50 [28]: 56 nM; IC50 [29]: 61 nM; IC50 [30]: 69 nM; IC50 [31]: 46 nM

# Source: ChEMBL document CHEMBL1649312, “Absence of association between piperaquine in vitro responses and polymorphisms in the pfcrt, pfmdr1, pfmrp, and pfnhe genes in Plasmodium falciparum” (Antimicrob Agents Chemother, 2010)
